Assay results taken from patent US6803484B2, “Sulfonamide derivatives” (Eli Lilly and Company, priority 2000, dated 2004).

Experiment: Determination of plasma exposure of test compounds in rats (LC/MS of plasma after oral dosing)
Format: in vivo, rat (male F-344)
Conditions: for AUC / Cmax / Tmax: male, F-344, rat, rats, oral administration of a 30 mg/kg dose; for AUC: n = 3, read-out: AUC (area under the curve); for Cmax: n = 3, read-out: Cmax (maximum concentration of test compound); for Tmax: n = 3, read-out: tmax (time at which maximum concentration resulted); for concentration at 0.5 h / concentration at 1 h / concentration at 2 h / concentration at 6 h: rat, male F-344 rats, 30 mg/kg oral by gavage, suspension, n = 3
Description: General Procedure for Determination of Plasma Exposure of Test Compounds in Rats
Each compound was administered as a suspension in a vehicle consisting of 5% ethanol, 95% of a mixture of 0.5% each Polysorbate 80/sodium carboxymethylcellulose in water. Three male F-344 rats were dosed orally at 30 mg/kg by gavage and blood collected by orbital venapuncture under isoflurane anesthesia at 0.5, 1, and 2 hours after dosing into sodium heparinized containers. The final 6 hour timepoint was collected by cardiac puncture into sodium heparinized containers. Plasma was collected after brief centrifugation and frozen at −70° C. until assay. Plasma samples were assayed by LC/MS using standards prepared by spiking plasma with the compound of interest.

Structure (SMILES)	AUC [ng·h/mL]	Cmax [ng/mL]	Tmax [min]	concentration at 0.5 h [ng/mL]	concentration at 1 h [ng/mL]	concentration at 2 h [ng/mL]	concentration at 6 h [ng/mL]
CC(CNS(=O)(=O)C(C)C)c1ccc(NC(=O)c2ccc(F)cc2F)cc1 (centres unmarked) [Compound A, N-[4-(1-methyl-2-{[(methylethyl)sulfonyl]amino}ethyl)phenyl](2,4-difluorophenyl)carboxamide]	1440 ± 227	473	30	473 ± 100	333 ± 53	329 ± 62	67 ± 17
CC(C)S(=O)(=O)NC[C@H](C)c1ccc(NC(=O)c2cc(F)cc(F)c2)cc1 [Compound B, N-[4-((1R)-1-methyl-2-{[(methylethyl)sulfonyl]amino}ethyl)phenyl](3,5-difluorophenyl)carboxamide]	5596 ± 14	1490	30	1491 ± 12	1170 ± 134	1040 ± 62	693 ± 136
